Laboratory results: US9464064B2, “HCV helicase inhibitors and methods of use thereof” (University of Kansas, priority 2011, dated 2016)

Molecular target: T1, HCV NS3 helicase NS3h_1b(con1) (Hepatitis C virus genotype 1b, UniProt Q9WMX2)
T1 construct: truncated C-terminally His-tagged NS3 proteins lacking the N-terminal protease, called NS3h; His-tag (C); made in house
Assay: MBHA screen of NCI mechanistic set library at 20 μM (percent inhibition, compound interference)
Format: biochemical
Details: compounds at 20 μM; for Inh. (%) (Inhibition): calculated from Equation 1
Summary of the method: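 Molecular beacon-based DNA unwinding assay; compounds screened at 20 μM in triplicate, with DMSO-only negative and 500 nM dT20 positive controls. Fluorescence (ex 643/em 670 nm) was read before and 30 min after adding ATP to 1 mM. Percent inhibition came from the change relative to DMSO controls; interference from pre-ATP fluorescence versus DMSO controls.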

[1] = MBHA with DNA substrate, assay interference calculated with Equation 2
[2] = assay interference calculated with Equation 2 (fluorescence vs DMSO-only controls before ATP)

T1 sequence (Q9WMX2 1192-1657): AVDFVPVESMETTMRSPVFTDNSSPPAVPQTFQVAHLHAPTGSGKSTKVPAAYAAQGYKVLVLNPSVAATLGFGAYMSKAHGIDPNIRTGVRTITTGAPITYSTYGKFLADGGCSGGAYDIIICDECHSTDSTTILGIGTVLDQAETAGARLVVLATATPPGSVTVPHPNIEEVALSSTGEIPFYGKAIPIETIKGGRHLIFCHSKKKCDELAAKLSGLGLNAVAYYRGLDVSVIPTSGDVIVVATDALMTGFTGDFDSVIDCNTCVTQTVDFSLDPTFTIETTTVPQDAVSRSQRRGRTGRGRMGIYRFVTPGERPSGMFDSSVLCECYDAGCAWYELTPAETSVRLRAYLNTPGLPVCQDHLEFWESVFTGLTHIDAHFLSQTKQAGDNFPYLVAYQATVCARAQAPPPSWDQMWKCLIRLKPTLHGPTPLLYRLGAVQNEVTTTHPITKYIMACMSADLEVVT

| Structure (SMILES) | Int.* (Ratio) (Interference) [1] | Inh. (%) (Inhibition) (MBHA with DNA substrate) | Inh. (%) (Inhibition) (MBHA with DNA substrate, 20 µM) | Inh. (%) (Inhibition) (MBHA with a DNA substrate) | Int.* (Ratio) (Interference) [2] |
| --- | --- | --- | --- | --- | --- |
| [O-][n+]1ccccc1[S-].[O-][n+]1ccccc1[S-].[Zn+2] [Compound 68093] | 0.90 Ratio | 19.5% | – | – | – |
| COc1ccc2[nH]c3c(C)c4ccncc4c(C)c3c2c1 [Compound 69187] | 0.22 Ratio | 99.2% | – | – | – |
| Cl.Cl.Cl.Cl.NCCCNCCCCNCCCN [Compound 69852] | 1.06 Ratio | −8.6% | – | – | – |
| Nc1ncnc2c1ncn2C1OC(CO)C(O)C1O (stereo not drawn) [Compound 70422] | 0.85 Ratio | – | 33.9% | – | – |
| COC(=O)C1c2cc3c(c(O)c2C(OC2OC(C)C(OC)C(C)(OC)C2OC)CC1(C)O)C(=O)c1c(O)cc2c(c1C3=O)OC1OC2(C)C(O)C(N(C)C)C1O (stereo not drawn) [Compound 70845] | 0.59 Ratio | 84.4% | – | – | – |
| Cc1cc2c(c3oc(C4(C)OC4C4OC4C)cc(=O)c13)C(=O)c1c(O)c(C3CC(C)(N(C)C)C(O)C(C)O3)cc(C3CC(N(C)C)C(O)C(C)O3)c1C2=O (stereo not drawn) [Compound 70929] | 0.20 Ratio | 32.1% | – | – | – |
| COc1ccc(OC)c(-c2cc(=O)c3c(OC)c(OC)c(OC)c(OC)c3o2)c1 [Compound 71300] | 1.12 Ratio | 2.2% | – | – | – |
| Nc1nc(N)c(-c2cccc(C(F)(F)F)c2)c(Cc2cccc(C(F)(F)F)c2)n1 [Compound 71669] | 1.06 Ratio | 12.4% | – | – | – |
| Nc1nc(=S)c2ncn([C@@H]3C[C@H](O)[C@@H](CO)O3)c2[nH]1 [Compound 71851] | – | – | – | 10.2% | 0.94 Ratio |
| Nc1ncnc2c1nnn2[C@@H]1O[C@H](CO)[C@@H](O)[C@H]1O [Compound 72961] | – | – | – | 8.5% | 0.98 Ratio |
| CC(=O)C1=C(O)C2(O)C(=O)c3c(c(C)c4ccc(C)c(O)c4c3O)CC2C(N)C1=O.CCCCCCCCCCCCOS(=O)(=O)O (stereo not drawn) [Compound 73495] | – | – | – | −5.1% | 1.01 Ratio |
| Cl.NC(N)=N/N=C(\c1ccc(Cl)cc1)C1CC1 [Compound 74420] | – | – | – | −6.1% | 1.10 Ratio |
| O=C(Nc1ccc(Sc2ccc(N=Nc3c(O)c(S(=O)(=O)O)cc4cc(S(=O)(=O)O)ccc34)cc2)cc1)c1ccc(N=Nc2c(O)ccc3c(S(=O)(=O)O)cc(S(=O)(=O)O)cc23)cc1 [Compound 76027] | – | – | – | −5.5% | 0.85 Ratio |
| CC1=Nc2ccccc2/C1=C\c1c(C)[nH]c2ccccc12 [Compound 76747] | 1.14 Ratio | −1.2% | – | – | – |
| C[C@]12C=CC(=O)C=C1[C@@H](F)C[C@H]1[C@@H]3CC[C@](O)(C(=O)CO)[C@@]3(C)C[C@H](O)[C@@]12F [Compound 77021] | – | – | – | 9.8% | 1.00 Ratio |
| CCCCOc1ccc(NC(N)=Nc2ccc(Cl)cc2)cc1 [Compound 78365] | 0.98 Ratio | 4.7% | – | – | – |
| Cc1ccc([N+](=O)[O-])cc1NC(=O)c1cccc([N+](=O)[O-])c1O [Compound 79451] | 0.98 Ratio | −11.9% | – | – | – |
| Cc1ccc(NC(=O)c2cccc([N+](=O)[O-])c2O)c(C)c1 [Compound 79456] | 0.97 Ratio | −14.5% | – | – | – |
